According to PubChem BioAssay AID2060906 (Molecular Pharmacology Branch, DTP, NCI, 2025):
Where “and” joins values, the source holds several entries; their conditions need not be identical. Equal values may be shown once.

Tested on: 485176-168-R4-J1-PDC complex spheroid growth
Experiment: Anticancer human tumor 485176-168-R4-J1-PDC patient-derived pancreatic adenocarcinoma cell line growth inhibition [RAS]
Conditions: for viability, T/C: stronger effect = lower value
How it was run: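 Tumour cells grown as complex spheroids with HUVEC endothelial cells and mesenchymal stem cells, treated with RAS pathway inhibitor combinations. Each agent spans half-log steps from near clinical Cmax, or 10 microM where Cmax is unknown.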

[1] = curve of first compound, second compound 0.00316 µM
[2] = curve of first compound, second compound 0.01 µM
[3] = curve of first compound, second compound 0.0316 µM
[4] = curve of first compound, second compound 0.1 µM
[5] = curve of first compound, second compound 0.316 µM
[6] = curve of first compound, second compound 1 µM
[7] = second compound 0.00316 µM, first compound 0.0316 µM
[8] = second compound 0.00316 µM, first compound 0.1 µM
[9] = second compound 0.00316 µM, first compound 0.316 µM
[10] = second compound 0.00316 µM, first compound 1 µM
[11] = second compound 0.01 µM, first compound 0.0316 µM
[12] = second compound 0.01 µM, first compound 0.1 µM
[13] = second compound 0.01 µM, first compound 0.316 µM
[14] = second compound 0.01 µM, first compound 1 µM
[15] = second compound 0.0316 µM, first compound 0.0316 µM
[16] = second compound 0.0316 µM, first compound 0.1 µM
[17] = second compound 0.0316 µM, first compound 0.316 µM
[18] = second compound 0.0316 µM, first compound 1 µM
[19] = second compound 0.1 µM, first compound 0.0316 µM
[20] = second compound 0.1 µM, first compound 0.1 µM
[21] = second compound 0.1 µM, first compound 0.316 µM
[22] = second compound 0.1 µM, first compound 1 µM
[23] = second compound 0.316 µM, first compound 0.0316 µM
[24] = second compound 0.316 µM, first compound 0.1 µM
[25] = second compound 0.316 µM, first compound 0.316 µM
[26] = second compound 0.316 µM, first compound 1 µM
[27] = second compound 1 µM, first compound 0.0316 µM
[28] = second compound 1 µM, first compound 0.1 µM
[29] = second compound 1 µM, first compound 0.316 µM
[30] = second compound 1 µM, first compound 1 µM
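Note: spheroids exposed to compounds for seven days before readout.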
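Throughout, for viability, T/C: luminescence viability expressed relative to DMSO vehicle wells set as 100%.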

Work on `CC1(O)CCCC1n1c(=O)c(C(F)F)cc2cnc(NC3CCN(S(C)(=O)=O)CC3)nc21` (stereo not drawn) + CCn1c(-c2cc(N3CCN(C)CC3)cnc2C(C)OC)c2c3cc(ccc31)-c1csc(n1)CC(NC(=O)C1CC1C)C(=O)N1CCCC(N1)C(=O)OCC(C)(C)C2 yielded an IC50 (curve of first compound, second compound 0.000949 µM) of 1460 nM, an IC50 (curve of first compound, second compound 0.003 µM) of 3440 nM and an IC50 (curve of first compound, second compound 0.00949 µM) of 1720 nM. For the same compound, the IC50 (curve of first compound, second compound 0.03 µM) was 1660 nM, the IC50 (curve of first compound, second compound 0.0949 µM) was 1390 nM and the IC50 (curve of first compound, second compound 0.3 µM) was 1510 nM. It also gave a viability, T/C (second compound 0.000949 µM, first compound 0.0316 µM) of 81.1%, a viability, T/C (second compound 0.000949 µM, first compound 0.1 µM) of 67.5% and a viability, T/C (second compound 0.000949 µM, first compound 0.316 µM) of 63%. The viability, T/C (second compound 0.000949 µM, first compound 1 µM) was 48.1%, the viability, T/C (second compound 0.000949 µM, first compound 3.16 µM) was 48.4% and the viability, T/C (second compound 0.000949 µM, first compound 10 µM) was 2.12%. The viability, T/C (second compound 0.003 µM, first compound 0.0316 µM) was 73.9%, the viability, T/C (second compound 0.003 µM, first compound 0.1 µM) was 56% and the viability, T/C (second compound 0.003 µM, first compound 0.316 µM) was 71.5%. For the same compound, the viability, T/C (second compound 0.003 µM, first compound 1 µM) was 59.7%, the viability, T/C (second compound 0.003 µM, first compound 3.16 µM) was 54.9% and the viability, T/C (second compound 0.003 µM, first compound 10 µM) was 1.93%. For the same compound, the viability, T/C (second compound 0.00949 µM, first compound 0.0316 µM) was 78.6%, the viability, T/C (second compound 0.00949 µM, first compound 0.1 µM) was 68.6% and the viability, T/C (second compound 0.00949 µM, first compound 0.316 µM) was 60.8%. For the same compound, the viability, T/C (second compound 0.00949 µM, first compound 1 µM) was 61.5%, the viability, T/C (second compound 0.00949 µM, first compound 3.16 µM) was 41.5% and the viability, T/C (second compound 0.00949 µM, first compound 10 µM) was 1.63%. The viability, T/C (second compound 0.03 µM, first compound 0.0316 µM) was 63.7%, the viability, T/C (second compound 0.03 µM, first compound 0.1 µM) was 50.4% and the viability, T/C (second compound 0.03 µM, first compound 0.316 µM) was 56.6%. For the same compound, the viability, T/C (second compound 0.03 µM, first compound 1 µM) was 56%, the viability, T/C (second compound 0.03 µM, first compound 3.16 µM) was 43.1% and the viability, T/C (second compound 0.03 µM, first compound 10 µM) was 1.78%. The viability, T/C (second compound 0.0949 µM, first compound 0.0316 µM) was 59.4%, the viability, T/C (second compound 0.0949 µM, first compound 0.1 µM) was 60.9% and the viability, T/C (second compound 0.0949 µM, first compound 0.316 µM) was 51.3%. It also gave a viability, T/C (second compound 0.0949 µM, first compound 1 µM) of 49.4%, a viability, T/C (second compound 0.0949 µM, first compound 3.16 µM) of 44.7% and a viability, T/C (second compound 0.0949 µM, first compound 10 µM) of 2.07%. For the same compound, the viability, T/C (second compound 0.3 µM, first compound 0.0316 µM) was 75.7%, the viability, T/C (second compound 0.3 µM, first compound 0.1 µM) was 48.5% and the viability, T/C (second compound 0.3 µM, first compound 0.316 µM) was 44%. The viability, T/C (second compound 0.3 µM, first compound 1 µM) was 58.9%, the viability, T/C (second compound 0.3 µM, first compound 3.16 µM) was 43% and the viability, T/C (second compound 0.3 µM, first compound 10 µM) was 1.81%.

`Nc1ccn(C2OC(CO)C(O)C2(F)F)c(=O)n1` (stereo not drawn) + C=CC(=O)N1CCN(c2nc(OCC3CCCN3C)nc3c(F)c(-c4nc(N)cc(C)c4C(F)(F)F)c(Cl)cc23)C(C)C1 showed an IC50 [1] of 15 nM, an IC50 [2] of 16.8 nM and an IC50 [3] of 17.5 nM. For the same compound, the IC50 [4] was 17.6 nM, the IC50 [5] was 13.7 nM and the IC50 [6] was 17.5 nM. The viability, T/C (second compound 0.00316 µM, first compound 0.00316 µM) was 89.7%, the viability, T/C (second compound 0.00316 µM, first compound 0.01 µM) was 70.5% and the viability, T/C [7] was 12.2%. For the same compound, the viability, T/C [8] was 7.74%, the viability, T/C [9] was 7.62% and the viability, T/C [10] was 8.54%. It also gave a viability, T/C (second compound 0.01 µM, first compound 0.00316 µM) of 101%, a viability, T/C (second compound 0.01 µM, first compound 0.01 µM) of 81.4% and a viability, T/C [11] of 11.6%. It also gave a viability, T/C [12] of 8.54%, a viability, T/C [13] of 7.95% and a viability, T/C [14] of 11.2%. For the same compound, the viability, T/C (second compound 0.0316 µM, first compound 0.00316 µM) was 84.2%, the viability, T/C (second compound 0.0316 µM, first compound 0.01 µM) was 86% and the viability, T/C [15] was 13%. It also gave a viability, T/C [16] of 6.18%, a viability, T/C [17] of 9.67% and a viability, T/C [18] of 8.77%. For the same compound, the viability, T/C (second compound 0.1 µM, first compound 0.00316 µM) was 96.1%, the viability, T/C (second compound 0.1 µM, first compound 0.01 µM) was 86.2% and the viability, T/C [19] was 12.4%. The viability, T/C [20] was 9.42%, the viability, T/C [21] was 8.72% and the viability, T/C [22] was 8.42%. For the same compound, the viability, T/C (second compound 0.316 µM, first compound 0.00316 µM) was 98.1%, the viability, T/C (second compound 0.316 µM, first compound 0.01 µM) was 63.7% and the viability, T/C [23] was 13.7%. For the same compound, the viability, T/C [24] was 7.48%, the viability, T/C [25] was 6.75% and the viability, T/C [26] was 9.71%. It also gave a viability, T/C (second compound 1 µM, first compound 0.00316 µM) of 103%, a viability, T/C (second compound 1 µM, first compound 0.01 µM) of 85.2% and a viability, T/C [27] of 13%. For the same compound, the viability, T/C [28] was 8.41%, the viability, T/C [29] was 9.99% and the viability, T/C [30] was 10.3%.

`NC1c2ccccc2OC12CCN(c1cnc3c(N4CCCc5ncccc54)n[nH]c3n1)CC2` (stereo not drawn) + C=CC(=O)N1CCN(c2nc(OCC3CCCN3C)nc3c(F)c(-c4nc(N)cc(C)c4C(F)(F)F)c(Cl)cc23)C(C)C1 was tested, and the IC50 [1] was over 10000 nM, the IC50 [2] was over 10000 nM and the IC50 [3] was over 10000 nM. It also gave an IC50 [4] of over 10000 nM, an IC50 [5] of over 10000 nM and an IC50 [6] of over 10000 nM. It also gave a viability, T/C [7] of 81.4%, a viability, T/C [8] of 77.9% and a viability, T/C [9] of 71.7%. It also gave a viability, T/C [10] of 80.1%, a viability, T/C (second compound 0.00316 µM, first compound 3.16 µM) of 77.2% and a viability, T/C (second compound 0.00316 µM, first compound 10 µM) of 55.8%. The viability, T/C [11] was 84.1%, the viability, T/C [12] was 75.3% and the viability, T/C [13] was 87.9%. It also gave a viability, T/C [14] of 70%, a viability, T/C (second compound 0.01 µM, first compound 3.16 µM) of 79.1% and a viability, T/C (second compound 0.01 µM, first compound 10 µM) of 62.9%. The viability, T/C [15] was 82.9%, the viability, T/C [16] was 66.2% and the viability, T/C [17] was 76.7%. For the same compound, the viability, T/C [18] was 85.3%, the viability, T/C (second compound 0.0316 µM, first compound 3.16 µM) was 72.9% and the viability, T/C (second compound 0.0316 µM, first compound 10 µM) was 59.1%. The viability, T/C [19] was 91.2%, the viability, T/C [20] was 86.5% and the viability, T/C [21] was 71%. The viability, T/C [22] was 72.6%, the viability, T/C (second compound 0.1 µM, first compound 3.16 µM) was 84% and the viability, T/C (second compound 0.1 µM, first compound 10 µM) was 81.7%. The viability, T/C [23] was 82.7%, the viability, T/C [24] was 91.5% and the viability, T/C [25] was 82.5%. It also gave a viability, T/C [26] of 91.5%, a viability, T/C (second compound 0.316 µM, first compound 3.16 µM) of 80.2% and a viability, T/C (second compound 0.316 µM, first compound 10 µM) of 61%. The viability, T/C [27] was 91.5%, the viability, T/C [28] was 68.8% and the viability, T/C [29] was 69.5%. The viability, T/C [30] was 72.1%, the viability, T/C (second compound 1 µM, first compound 3.16 µM) was 74% and the viability, T/C (second compound 1 µM, first compound 10 µM) was 66.2%.

With `CC(=O)OC12COC1CC(O)C1(C)C(=O)C(O)C3=C(C)C(OC(=O)C(O)C(NC(=O)OC(C)(C)C)c4ccccc4)CC(O)(C(OC(=O)c4ccccc4)C21)C3(C)C` (stereo not drawn) the viability, T/C (compound 0.0316 µM) was 15.6% [middle of 4 runs], the viability, T/C (compound 0.1 µM) was 14.3% [middle of 4 runs] and the viability, T/C (compound 0.316 µM) was 12.7% [middle of 4 runs]. The viability, T/C (compound 1 µM) was 13.4% and 12.8% and 14.2% (2×), the viability, T/C (compound 3.16 µM) was 17.2% [middle of 4 runs] and the viability, T/C (compound 10 µM) was 17.7% and 22.4% (2×) and 25.1%. For the same compound, the IC50 (curve of compound) was under 31.6 nM.
